Source: US11225505B2, “Antimicrobial polymyxin derivative compounds” (MONASH UNIVERSITY, priority 2015, dated 2022)
≈ marks a conversion by molar mass, not a printed value. Where two headings read alike, the source gives them in different places. Where a SMILES comes first, the peptide text is derived from it. Bridges are numbered along the chain shown (N, C = ends). [ ]: non-standard residue; d: D form. The star is where a group is joined. X14 = O=C(c1ccc(C(F)(F)F)cn1)*; X22 = Cn1c(C(=O)*)cc2ccccc21; X51 = O=C(c1cc(Cl)nc(Cl)c1)*; X52 = O=C(c1nc2ccccc2s1)*; X48 = O=C(c1ccc(Cl)nc1)*; Dab = NCC[C@H](N)C(=O)O; Abu = CC[C@H](N)C(=O)O; Dap = NC[C@H](N)C(=O)O

Tests used:
[1] = tested on: Acinetobacter baumannii ATCC 17978; type: cell-based
In short: (§1)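 Gram-negative bacteria susceptible to polymyxin were exposed to lipopeptide trifluoroacetates in CAMHB, and growth inhibition was read as the MIC by the CLSI microdilution protocol.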

[2] = tested on: Acinetobacter baumannii FADDI-AB034; type: cell-based
In short: as §1

[3] = tested on: Enterobacter cloacae FADDI-EC001; type: cell-based
In short: (§2)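 In cation-adjusted Mueller-Hinton broth, each lipopeptide (TFA salt) was titrated against the bacteria by microdilution and the minimum inhibitory concentration recorded per CLSI M100-S24; polymyxin B sulphate ran in parallel.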

[4] = tested on: Enterobacter cloacae FADDI-EC003; type: cell-based
In short: as §1

[5] = tested on: Enterobacter cloacae FADDI-EC006; type: cell-based
In short: as §1

[6] = tested on: Klebsiella pneumoniae FADDI-KP022; type: cell-based
In short: as §1

[7] = tested on: Klebsiella pneumoniae FADDI-KP032; type: cell-based
In short: as §1

[8] = tested on: Klebsiella pneumoniae Kp BM1; type: cell-based
In short: as §2

[9] = tested on: Pseudomonas aeruginosa ATCC 27853; type: cell-based
In short: as §1

[10] = tested on: Pseudomonas aeruginosa FADDI-PA01; type: cell-based
In short: as §1

[11] = tested on: Pseudomonas aeruginosa FADDI-PA022; type: cell-based
In short: as §1

[12] = tested on: Pseudomonas aeruginosa FADDI-PA038; type: cell-based
In short: as §1

[13] = tested on: Acinetobacter baumannii FADDI-AB030; test: microbe, parasite or virus in culture; type: cell-based
In short: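 Lipopeptide TFA salts tested against the multidrug-resistant clinical isolate by CLSI (M100-S24) broth microdilution in cation-adjusted Mueller-Hinton broth, with polymyxin B sulphate as control; MIC read.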

mouse kidney = test: Nephrotoxicity in a mouse model (kidney histology); type: in vivo; details: for Max Overall Kidney Histological Score / Max Kidney Histological Score: mice (n=3), subcutaneous 12 mg/kg free base every 2 h, 6 doses in one day; for Max Overall Kidney Histological Score: kidney ~20 h after last dose; for Max Kidney Histological Score: semiquantitative score 0 to +5
Experimental: Polymyxin B sulphate and colistin sulphate were supplied by Betapharma (Shanghai Co., Ltd, China). Stock solutions of compounds in saline (5 mg base/mL) were stored at 4° C. before use. Mice (n=3) were subcutaneously administered with the compound at 12 mg/kg of the free base form every 2 h, 6 doses in one day. At approximately 20 h after the last dose, mice were euthanised by inhalation of an overdose of isoflurane. Immediately after blood sampling, the right kidney from each mouse was collected immediately and placed in 10% formalin in 5 mL plastic tubes and the left kidney placed in a pre-weighed 14 mL plastic tubes, weighed again and stored at −20° C. pending homogenization and analysis of polymyxin B and colistin. The frozen kidney samples were thawed, homogenized in 2 mL of Milli-Q water and stored in a −20° C. freezer. The formalin-fixed kidneys were then sent to the Australian Phenomics Network-Histopathology and Organ Pathology (The University of Melbourne, Parkville, Australia) for histological examination. Samples were examined by a pathologist who was blind to the treatment groups.
Lesions were rated as follows: mild acute tubular damage with tubular dilation, prominent nuclei and a few pale tubular casts (Grade 1); severe acute tubular damage with necrosis of tubular epithelial cells and numerous tubular casts (Grade 2); acute cortical necrosis/infarction of tubules and glomeruli with or without papillary necrosis (Grade 3). The grades were given the following scores: grade 1=1, grade 2=4, and grade 3=10. The percentage of area of the kidney slice showing histological damage was scored as follows: <1%=0, 1 to <5%=1, 5 to <10%=2, 10 to <20%=3, 20 to <30%=4, 30 to <40%=5, and >40%=6. The overall kidney histological score was calculated as the product of the percentage score and grade score. These scores were then expressed as a semiquantitative score (Kidney Histological Score) on a scale of 0 to +5 for renal histological changes. These scores were assigned as follows: SQS 0=no significant change (overall score, <1); SQS +1=mild damage (overall score, 1 to <15); SQS +2=mild to moderate damage (overall score, 15 to <30); SQS +3=moderate damage (overall score, 30 to <45); SQS +4=moderate to severe damage (overall score, 45 to <60); and SQS +5=severe damage (overall score, ≥60) (Yousef, J., et al., (2011) Antimicrob. Agents and Chemother. 55 (9), 4044-4049).
Any compound with a kidney histological score of ≤+1.0 is considered to have a low nephrotoxicity in this model.

[14] = A. baumannii ATCC 17978, CAMHB broth microdilution
[15] = A. baumannii FADDI-AB034, CAMHB broth microdilution
[16] = E. cloacae FADDI-EC001, CAMHB broth microdilution
[17] = E. cloacae FADDI-EC003, CAMHB broth microdilution
[18] = E. cloacae FADDI-EC006, CAMHB broth microdilution
[19] = K. pneumoniae FADDI-KP022, CAMHB broth microdilution
[20] = K. pneumoniae FADDI-KP032, CAMHB broth microdilution
[21] = K. pneumoniae Kp BM1, CAMHB broth microdilution
[22] = P. aeruginosa ATCC 27853, CAMHB broth microdilution
[23] = P. aeruginosa FADDI-PA01, CAMHB broth microdilution
[24] = P. aeruginosa FADDI-PA022, CAMHB broth microdilution
[25] = P. aeruginosa FADDI-PA038, CAMHB broth microdilution
[26] = A. baumannii FADDI-AB030, CAMHB broth microdilution

Compound	Minimum inhibitory concentration [1, 14] [µg/mL]	Minimum inhibitory concentration [2, 15] [µg/mL]	Minimum inhibitory concentration [3, 16] [µg/mL]	Minimum inhibitory concentration [4, 17] [µg/mL]	Minimum inhibitory concentration [5, 18] [µg/mL]	Minimum inhibitory concentration [6, 19] [µg/mL]	Minimum inhibitory concentration [7, 20] [µg/mL]	Minimum inhibitory concentration [8, 21] [µg/mL]	Minimum inhibitory concentration [9, 22] [µg/mL]	Minimum inhibitory concentration [10, 23] [µg/mL]	Minimum inhibitory concentration [11, 24] [µg/mL]	Minimum inhibitory concentration [12, 25] [µg/mL]	Minimum inhibitory concentration [13, 26] [µg/mL]	Max Overall Kidney Histological Score (mouse kidney)	Max Kidney Histological Score (mouse kidney)	also measured
Colistin [reference compound]	0.5	0.5	0.25	<0.125	<0.125	1	1	<0.125	1	0.5	1	1	0.25	60.0	+5 (SQS +5=severe damage (overall score, ≥60))	nephrotoxicity in the mouse model (in words) (mouse kidney; 12 mg/kg every 2 h, 6 doses, subcutaneous): severe nephrotoxicity
CC[C@@H]1NC(=O)[C@@H](CC(C)C)NC(=O)[C@H](CCN)NC(=O)[C@@H](NC(=O)[C@H](CN)NC(=O)[C@@H](NC(=O)[C@H](CCN)NC(=O)c2nc3ccccc3s2)[C@@H](C)O)CCNC(=O)[C@H]([C@@H](C)O)NC(=O)[C@H](CCN)NC(=O)[C@H](CCN)NC1=O [Compound 70] (X52-[Dab]T[Dap][Dab][Dab][dL][Abu][Dab][Dab]T; lactam 4-C)	0.5 (≈ 0.435 µM)	1 (≈ 0.871 µM)	0.25 (≈ 0.218 µM)	0.25 (≈ 0.218 µM)	0.25 (≈ 0.218 µM)	<0.125	<0.125	<0.125	0.5 (≈ 0.435 µM)	0.25 (≈ 0.218 µM)	0.5 (≈ 0.435 µM)	1 (≈ 0.871 µM)	0.5 (≈ 0.435 µM)	0.0	0 (SQS 0=no significant change (overall score, <1))	–
CC[C@@H]1NC(=O)[C@@H](CC(C)C)NC(=O)[C@H](CCN)NC(=O)[C@@H](NC(=O)[C@H](CN)NC(=O)[C@@H](NC(=O)[C@H](CCN)NC(=O)c2cc(Cl)nc(Cl)c2)[C@@H](C)O)CCNC(=O)[C@H]([C@@H](C)O)NC(=O)[C@H](CCN)NC(=O)[C@H](CCN)NC1=O [Compound 19] (X51-[Dab]T[Dap][Dab][Dab][dL][Abu][Dab][Dab]T; lactam 4-C)	–	–	–	–	–	–	–	–	–	–	–	–	–	0.0	0 (SQS 0=no significant change (overall score, <1))	–
CC[C@@H]1NC(=O)[C@@H](CC(C)C)NC(=O)[C@H](CCN)NC(=O)[C@@H](NC(=O)[C@H](CN)NC(=O)[C@@H](NC(=O)[C@H](CCN)NC(=O)c2ccc(C(F)(F)F)cn2)[C@@H](C)O)CCNC(=O)[C@H]([C@@H](C)O)NC(=O)[C@H](CCN)NC(=O)[C@H](CCN)NC1=O [Compound 38] (X14-[Dab]T[Dap][Dab][Dab][dL][Abu][Dab][Dab]T; lactam 4-C)	1 (≈ 0.862 µM)	0.25 (≈ 0.215 µM)	<0.125	0.25 (≈ 0.215 µM)	0.25 (≈ 0.215 µM)	0.25 (≈ 0.215 µM)	<0.125	<0.125	0.25 (≈ 0.215 µM)	0.25 (≈ 0.215 µM)	0.25 (≈ 0.215 µM)	1 (≈ 0.862 µM)	1 (≈ 0.862 µM)	0.0	0 (SQS 0=no significant change (overall score, <1))	–
CC[C@@H]1NC(=O)[C@@H](CC(C)C)NC(=O)[C@H](CCN)NC(=O)[C@@H](NC(=O)[C@H](CN)NC(=O)[C@@H](NC(=O)[C@H](CCN)NC(=O)c2ccc(Cl)nc2)[C@@H](C)O)CCNC(=O)[C@H]([C@@H](C)O)NC(=O)[C@H](CCN)NC(=O)[C@H](CCN)NC1=O [Compound 4] (X48-[Dab]T[Dap][Dab][Dab][dL][Abu][Dab][Dab]T; lactam 4-C)	1 (≈ 0.888 µM)	1 (≈ 0.888 µM)	2 (≈ 1.78 µM)	0.5 (≈ 0.444 µM)	4 (≈ 3.55 µM)	0.5 (≈ 0.444 µM)	1 (≈ 0.888 µM)	2 (≈ 1.78 µM)	0.5 (≈ 0.444 µM)	0.5 (≈ 0.444 µM)	1 (≈ 0.888 µM)	1 (≈ 0.888 µM)	2 (≈ 1.78 µM)	0.0	0 (SQS 0=no significant change (overall score, <1))	–
CC(C)C[C@H]1NC(=O)[C@H](CCN)NC(=O)[C@@H](NC(=O)[C@H](CN)NC(=O)[C@@H](NC(=O)[C@H](CCN)NC(=O)c2cc3ccccc3n2C)[C@@H](C)O)CCNC(=O)[C@H]([C@@H](C)O)NC(=O)[C@H](CCN)NC(=O)[C@H](CCN)NC(=O)[C@H](C)NC1=O [Compound 65] (X22-[Dab]T[Dap][Dab][Dab][dL]A[Dab][Dab]T; lactam 4-C)	–	–	–	–	–	–	–	–	–	–	–	–	–	–	–	Minimum inhibitory concentration ([1]; ATCC 17978): 1 µg/mL (≈ 0.885 µM); Minimum inhibitory concentration ([2]; FADDI-AB034): 1 µg/mL (≈ 0.885 µM); Minimum inhibitory concentration ([3]; FADDI-EC001): 0.5 µg/mL (≈ 0.442 µM); Minimum inhibitory concentration ([4]; FADDI-EC003): 1 µg/mL (≈ 0.885 µM); Minimum inhibitory concentration ([5]; FADDI-EC006): 1 µg/mL (≈ 0.885 µM); Minimum inhibitory concentration ([6]; FADDI-KP022): 0.25 µg/mL (≈ 0.221 µM); Minimum inhibitory concentration ([7]; FADDI-KP032): 0.5 µg/mL (≈ 0.442 µM); Minimum inhibitory concentration ([8]; Kp BM1): 0.25 µg/mL (≈ 0.221 µM); Minimum inhibitory concentration ([9]; ATCC 27853): 0.5 µg/mL (≈ 0.442 µM); Minimum inhibitory concentration ([10]; FADDI-): 0.25 µg/mL (≈ 0.221 µM); Minimum inhibitory concentration ([11]; FADDI-PA022): 0.25 µg/mL (≈ 0.221 µM); Minimum inhibitory concentration ([12]; FADDI-PA038): 0.5 µg/mL (≈ 0.442 µM); Minimum inhibitory concentration ([13]; FADDI-AB030): 0.5 µg/mL (≈ 0.442 µM)
